Measurements taken from patent publication US8901118B2, “Compounds and methods for kinase modulation, and indications therefor” (Plexxikon Inc., priority 2010, dated 2014).

Assay: Relative solubility by turbidity in aqueous buffers (pH 1.5, 4.5, 6.8, 7.4)
Format: physicochemical
Conditions: for turbidity threshold (L, M, H) 1.4: pH 1.5 (SGF); for turbidity threshold (L, M, H) 4.5: pH 4.5 (SIF); for turbidity threshold (L, M, H) 6.8: pH 6.8 (SIF); for turbidity threshold (L, M, H) 7.4: pH 7.4 (HEPES)
How it was run: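 Twofold DMSO dilutions of a 25 mM stock were spiked into SGF (0.5M NaCl, pH 1.5), SIF (0.05M NaH2PO4, pH 4.5 and 6.8) or HEPES buffer (10 mM HEPES, 150 mM NaCl, pH 7.4). Absorbance was read at 490, 535 and 650 nm. The endpoint is the concentration crossing O.D. 0.01, averaged across wavelengths.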

Row | SMILES | turbidity threshold (L, M, H) 1.4 | turbidity threshold (L, M, H) 4.5 | turbidity threshold (L, M, H) 6.8 | turbidity threshold (L, M, H) 7.4
1 | CCn1cc(Nc2ccc(Cc3c[nH]c4ncnc(C5CC5)c34)c(F)n2)cn1 [Compound P-4036, [5-(4-Cyclopropyl-7H-pyrrolo[2,3-d]pyrimidin-5-ylmethyl)-6-fluoro-pyridin-2-yl]-(1-ethyl-1H-pyrazol-4-yl)-amine] | H (high solubility if the threshold concentration is >250 μm) | M (moderate solubility if the threshold concentration is 31.3 μM to 250 μM) | L (low solubility if the threshold concentration is <31.3 μM) | L (low solubility if the threshold concentration is <31.3 μM)
2 | CCn1cc(Nc2ccc(C(=O)c3c[nH]c4ncnc(C5CC5)c34)c(F)n2)cn1 [Compound P-4037, (4-Cyclopropyl-7H-pyrrolo[2,3-d]pyrimidin-5-yl)-[6-(1-ethyl-1H-pyrazol-4-ylamino)-2-fluoro-pyridin-3-yl]-methanone] | H (high solubility if the threshold concentration is >250 μm) | M (moderate solubility if the threshold concentration is 31.3 μM to 250 μM) | M (moderate solubility if the threshold concentration is 31.3 μM to 250 μM) | M (moderate solubility if the threshold concentration is 31.3 μM to 250 μM)
3 | Fc1nc(NC2CCC(F)(F)CC2)ccc1Cc1c[nH]c2ncnc(NC3CC3)c12 [Compound P-4129, N-cyclopropyl-5-[[6-[(4,4-difluorocyclohexyl)amino]-2-fluoro-3-pyridyl]methyl]-7H-pyrrolo[2,3-d]pyrimidin-4-amine] | H (high solubility if the threshold concentration is >250 μm) | M (moderate solubility if the threshold concentration is 31.3 μM to 250 μM) | M (moderate solubility if the threshold concentration is 31.3 μM to 250 μM) | M (moderate solubility if the threshold concentration is 31.3 μM to 250 μM)
4 | Fc1nc(Nc2ccc(C3CC3)nc2)ccc1Cc1c[nH]c2ncnc(NCC(F)(F)F)c12 [Compound P-4130, 5-[[6-[(6-cyclopropyl-3-pyridyl)amino]-2-fluoro-3-pyridyl]methyl]-N-(2,2,2-trifluoroethyl)-7H-pyrrolo[2,3-d]pyrimidin-4-amine] | H (high solubility if the threshold concentration is >250 μm) | M (moderate solubility if the threshold concentration is 31.3 μM to 250 μM) | M (moderate solubility if the threshold concentration is 31.3 μM to 250 μM) | M (moderate solubility if the threshold concentration is 31.3 μM to 250 μM)
5 | Clc1cnc2[nH]cc(Cc3cnc(NC4CCCCC4)nc3)c2c1 [Compound P-3001, [5-(5-chloro-1H-pyrrolo[2,3-b]pyridin-3-ylmethyl)-pyrimidin-2-yl]-cyclohexyl-amine] | H (high solubility if the threshold concentration is >250 μm) | L (low solubility if the threshold concentration is <31.3 μM) | L (low solubility if the threshold concentration is <31.3 μM) | L (low solubility if the threshold concentration is <31.3 μM)
6 | CCOc1ccc(Nc2ccc(C(=O)c3c[nH]c4ncc(C)cc34)c(F)n2)cn1 [Compound P-3045, [6-(6-ethoxy-pyridin-3-ylamino)-2-fluoro-pyridin-3-yl]-(5-methyl-1H-pyrrolo[2,3-b]pyridin-3-yl)-methanone] | M (moderate solubility if the threshold concentration is 31.3 μM to 250 μM) | M (moderate solubility if the threshold concentration is 31.3 μM to 250 μM) | M (moderate solubility if the threshold concentration is 31.3 μM to 250 μM) | L (low solubility if the threshold concentration is <31.3 μM)
7 | COc1ccc(Nc2ccc(C(=O)c3c[nH]c4ncnc(C5CC5)c34)c(F)n2)cn1 [Compound P-4022, (4-cyclopropyl-7H-pyrrolo[2,3-d]pyrimidin-5-yl)-[2-fluoro-6-(6-methoxy-pyridin-3-ylamino)-pyridin-3-yl]-methanone] | H (high solubility if the threshold concentration is >250 μm) | M (moderate solubility if the threshold concentration is 31.3 μM to 250 μM) | L (low solubility if the threshold concentration is <31.3 μM) | L (low solubility if the threshold concentration is <31.3 μM)
8 | Cc1cnc2[nH]cc(Cc3cnc(Nc4ccc(C(F)(F)F)nc4)nc3)c2c1 [Compound P-3018, [5-(5-Methyl-1H-pyrrolo[2,3-b]pyridin-3-ylmethyl)-pyrimidin-2-yl]-(6-trifluoromethyl-pyridin-3-yl)-amine] | H (high solubility if the threshold concentration is >250 μm) | M (moderate solubility if the threshold concentration is 31.3 μM to 250 μM) | M (moderate solubility if the threshold concentration is 31.3 μM to 250 μM) | M (moderate solubility if the threshold concentration is 31.3 μM to 250 μM)
9 | Cc1cnc2[nH]cc(C(=O)c3ccc(Nc4ccc(C)nc4)nc3F)c2c1 [Compound P-3043, [2-Fluoro-6-(6-methyl-pyridin-3-ylamino)-pyridin-3-yl]-(5-methyl-1H-pyrrolo[2,3-b]pyridin-3-yl)-methanone] | M (moderate solubility if the threshold concentration is 31.3 μM to 250 μM) | M (moderate solubility if the threshold concentration is 31.3 μM to 250 μM) | M (moderate solubility if the threshold concentration is 31.3 μM to 250 μM) | M (moderate solubility if the threshold concentration is 31.3 μM to 250 μM)
10 | Fc1nc(NC2CCC(F)(F)CC2)ccc1Cc1c[nH]c2ncnc(NCC(F)(F)F)c12 [Compound P-4128, 5-[[6-[(4,4-difluorocyclohexyl)amino]-2-fluoro-3-pyridyl]methyl]-N-(2,2,2-trifluoroethyl)-7H-pyrrolo[2,3-d]pyrimidin-4-amine] | H (high solubility if the threshold concentration is >250 μm) | M (moderate solubility if the threshold concentration is 31.3 μM to 250 μM) | M (moderate solubility if the threshold concentration is 31.3 μM to 250 μM) | M (moderate solubility if the threshold concentration is 31.3 μM to 250 μM)
11 | COCCOc1ncnc2[nH]cc(Cc3ccc(Nc4ccc(OC)nc4)nc3F)c12 [Compound P-4019, {6-Fluoro-5-[4-(2-methoxy-ethoxy)-7H-pyrrolo[2,3-d]pyrimidin-5-ylmethyl]-pyridin-2-yl}-(6-methoxy-pyridin-3-yl)-amine] | M (moderate solubility if the threshold concentration is 31.3 μM to 250 μM) | L (low solubility if the threshold concentration is <31.3 μM) | L (low solubility if the threshold concentration is <31.3 μM) | L (low solubility if the threshold concentration is <31.3 μM)
12 | COc1ncnc2[nH]cc(Cc3ccc(Nc4ccc(Cl)nc4)nc3F)c12 [Compound P-4003, (6-Chloro-pyridin-3-yl)-[6-fluoro-5-(4-methoxy-7H-pyrrolo[2,3-d]pyrimidin-5-ylmethyl)-pyridin-2-yl]-amine] | M (moderate solubility if the threshold concentration is 31.3 μM to 250 μM) | M (moderate solubility if the threshold concentration is 31.3 μM to 250 μM) | M (moderate solubility if the threshold concentration is 31.3 μM to 250 μM) | M (moderate solubility if the threshold concentration is 31.3 μM to 250 μM)
13 | CCOc1ncnc2[nH]cc(Cc3ccc(Nc4ccc(C)nc4)nc3F)c12 [Compound P-4017, [5-(4-Ethoxy-7H-pyrrolo[2,3-d]pyrimidin-5-ylmethyl)-6-fluoro-pyridin-2-yl]-(6-methyl-pyridin-3-yl)-amine] | M (moderate solubility if the threshold concentration is 31.3 μM to 250 μM) | M (moderate solubility if the threshold concentration is 31.3 μM to 250 μM) | M (moderate solubility if the threshold concentration is 31.3 μM to 250 μM) | L (low solubility if the threshold concentration is <31.3 μM)
14 | Cc1ccc(Nc2ccc(C(=O)c3c[nH]c4ncc(Cl)cc34)c(F)n2)cn1 [Compound P-3044, (5-Chloro-1H-pyrrolo[2,3-b]pyridin-3-yl)-[2-fluoro-6-(6-methyl-pyridin-3-ylamino)-pyridin-3-yl]-methanone] | L (low solubility if the threshold concentration is <31.3 μM) | L (low solubility if the threshold concentration is <31.3 μM) | L (low solubility if the threshold concentration is <31.3 μM) | M (moderate solubility if the threshold concentration is 31.3 μM to 250 μM)
15 | CCOc1ccc(Nc2ccc(C(=O)c3c[nH]c4ncnc(OC)c34)c(F)n2)cn1 [Compound P-4024, [6-(6-Ethoxy-pyridin-3-ylamino)-2-fluoro-pyridin-3-yl]-(4-methoxy-7H-pyrrolo[2,3-d]pyrimidin-5-yl)-methanone] | M (moderate solubility if the threshold concentration is 31.3 μM to 250 μM) | L (low solubility if the threshold concentration is <31.3 μM) | M (moderate solubility if the threshold concentration is 31.3 μM to 250 μM) | M (moderate solubility if the threshold concentration is 31.3 μM to 250 μM)
